Patent publication US10080751B2, “Systems and methods for treating bacterial infection” (priority 2016, dated 2018)
≈ marks a conversion by molar mass, not a printed value. Read-outs that look alike come from different tables or passages of the source.

Legend:
[1] = tested on: nosocomial pneumonia suspected or confirmed to be caused by Gram-positive pathogens; conditions: cited from earlier work; for cure rate: intent-to-treat, test of cure visit
S. aureus [2] = assay: MIC with/without bovine pulmonary surfactant, S. aureus; type: cell-based, Staphylococcus aureus; conditions: for MICRZ, Resazurin: +BPS: 2.5% v/v BPS; for MICRZ, Resazurin: no BPS
Protocol: (§1) Clinical isolates were identified by the submitting laboratories and confirmed by JMI Laboratories using standard bacteriologic algorithms and methodologies, including Matrix-Assisted Laser Desorption Ionization-Time Of Flight Mass Spectrometry (MALDI-TOF MS). When necessary, MALDI-TOF MS was performed using the Bruker Daltonics MALDI Biotyper (Billerica, Mass., USA), following manufacturer's instructions. Isolates selected were bacterial species commonly associated with pneumonia. […] 2.2 Susceptibility testing
(§2) Antibacterial susceptibility testing was measured by JMI Labs (North Liberty, Iowa, USA). […] These clinical isolates were collected from US (n=4), Mexico (n=2), and Italy (n=1). Susceptibility testing was performed by broth microdilution in accordance with the Clinical and Laboratory and Standards Institute (CLSI) guidelines M07-A10 (2015) and the standard operating procedures at JMI laboratories. Minimum inhibitory concentrations (MICs) were based on CLSI criteria (2015). There are no published breakpoints for iclaprim. E. coli, K. pneumoniae, M. catarrhalis, E. faecalis, and S. aureus were tested in cation-adjusted Mueller-Hinton broth (CA-MHB). S. pneumoniae were tested in CA-MHB supplemented with 2.5-5% lysed horse blood, and H. influenza were tested in Haemophilus test medium. Quality control and interpretation of results were performed in accordance with CLSI M100-S26 (2016) methods. QC ranges for iclaprim were those approved by CLSI and published in M100-S26 (2016). Iclaprim and comparator antibiotic MIC results were within the CLSI published ranges against E. coli ATCC 25922, E. faecalis ATCC 29212, E. faecalis ATCC 33186, H. influenzae ATCC 49247, K. pneumoniae ATCC 700603 (ESBL phenotype), S. aureus ATCC 29213, and S. pneumoniae ATCC 49619. Isolates were tested with MIC panels (ThermoFisher Scientific, Cleveland, Ohio, USA) of comparator antibiotics (daptomycin and levofloxacin).
(§3) Because bovine pulmonary surfactant can introduce cloudiness to the MIC testing media, antimicrobial growth inhibition was also evaluated using the colorimetric metabolic indicator resazurin (Camlab Ltd., Cambridge, UK). […] S. pneumoniae panels were omitted from resazurin analysis because the color change was obscured by the lysed horse blood present in the test medium. Growth inhibition was then evaluated as a visible color change from blue (no growth) to pink (robust growth) and recorded as a MICRZ value.
(§4) The MICs of iclaprim, levofloxacin, and daptomycin were determined against Gram-positive and Gram-negative isolates.
(§5) A new vial of bovine pulmonary surfactant (BPS; Survanta®; Abbott Laboratories, Columbus, Ohio) was utilized for each independent experiment. Each vial was mixed thoroughly and a 100 μL aliquot was spread on an agar plate, which was incubated overnight to confirm sterility. […] The concentration of surfactant was expressed in terms of percent volume of Survanta® suspension, which consisted of phospholipid (25 mg/mL) and surfactant proteins (<1 mg/mL) in 0.9% sodium chloride solution (Goerke, 1998). MICs of daptomycin were determined in CAMHB with the Ca^2+ content adjusted to 50 mg/L.

[3] = tested on: isolated rabbit Purkinje fibers
S. aureus [4] = conditions: worldwide surveillance studies; cited from earlier work
E. faecalis = assay: MIC with/without bovine pulmonary surfactant, E. faecalis; type: cell-based, Enterococcus faecalis; conditions: for MICRZ, Resazurin: +BPS: 2.5% v/v BPS; for MICRZ, Resazurin: no BPS
Protocol: as §1, §2, §3, §4, §5

S. aureus strain AH1252 = assay: Neutropenic rat lung infection model; type: in vivo; conditions: iclaprim 80 mg/kg
Protocol: S. aureus strain AH1252, a thymidine knockout of the MRSA wild type AW6 strain, was utilized for this study. The bacterial strain was diluted in a 2% alginate buffer, which was added dropwise in a ratio of 1:5 into […] to form alginate beads. The alginate beads reduce the efficacy of bacterial clearance similar to that seen in the cystic fibrosis population. A 5.25×10^4 bacterial inoculum was administered to groups of 9 rats, intratracheally, with prepared alginate bacteria suspensions, under isoflurane anesthesia. […] Twelve hours after the last treatment, rats were euthanized and lungs collected for CFU determination.

[5] = tested on: common Gram-positive and Gram-negative respiratory bacteria; assay: Pulmonary surfactant interaction, overall effect on MIC and MICRZ; type: cell-based; conditions: 2.5% (v/v) BPS, all tested strains or isolates
Protocol: Antibacterial susceptibility testing was measured by JMI Labs (North Liberty, Iowa, USA). […] These clinical isolates were collected from US (n=4), Mexico (n=2), and Italy (n=1). Susceptibility testing was performed by broth microdilution in accordance with the Clinical and Laboratory and Standards Institute (CLSI) guidelines M07-A10 (2015) and the standard operating procedures at JMI laboratories. Minimum inhibitory concentrations (MICs) were based on CLSI criteria (2015). There are no published breakpoints for iclaprim. E. coli, K. pneumoniae, M. catarrhalis, E. faecalis, and S. aureus were tested in cation-adjusted Mueller-Hinton broth (CA-MHB). […]
Because bovine pulmonary surfactant can introduce cloudiness to the MIC testing media, antimicrobial growth inhibition was also evaluated using the colorimetric metabolic indicator resazurin (Camlab Ltd., Cambridge, UK). […] Growth inhibition was then evaluated as a visible color change from blue (no growth) to pink (robust growth) and recorded as a MICRZ value.
as §4
A new vial of bovine pulmonary surfactant (BPS; Survanta®; Abbott Laboratories, Columbus, Ohio) was utilized for each independent experiment. […] MICs of daptomycin were determined in CAMHB with the Ca^2+ content adjusted to 50 mg/L. […]

E. coli = assay: MIC with/without bovine pulmonary surfactant, E. coli; type: cell-based, Escherichia coli; conditions: E. coli ATCC 25922
Protocol: as §1, §2, §3, §4
A new vial of bovine pulmonary surfactant (BPS; Survanta®; Abbott Laboratories, Columbus, Ohio) was utilized for each independent experiment. […] MICs of daptomycin were determined in CAMHB with the Ca^2+ content adjusted to 50 mg/L.

S. pneumoniae = assay: MIC with/without bovine pulmonary surfactant, S. pneumoniae; type: cell-based; conditions: Streptococcus pneumoniae
Protocol: as §1, §2, §3, §4, §5

K. pneumoniae = assay: MIC with/without bovine pulmonary surfactant, K. pneumoniae; type: cell-based, Klebsiella pneumoniae; conditions: for MIC: Klebsiella pneumoniae
Protocol: as §1, §2, §3, §4, §5

H. influenzae = assay: MIC with/without bovine pulmonary surfactant, H. influenzae; type: cell-based, Haemophilus influenzae; conditions: for MIC: Haemophilus influenzae
Protocol: as §1, §2, §3, §4, §5

[6] = S. aureus Clinical Isolate 825189
[7] = SC/BID 3 days, vancomycin 50 mg/kg

## COc1cc(Cc2cnc(N)nc2N)c2c(c1OC)OC(C1CC1)C=C2 (racemic) [Iclaprim]
[1]; iclaprim q12h
  death rate within 28 days of the start of treatment: 8.7%
[1]; iclaprim 0.8 mg/kg IV q12h
  cure rate: 73.9%
[1]; iclaprim 1.6 mg/kg IV q8h
  cure rate: 62.5%
S. aureus [2]; S. aureus ATCC 29213
  MICRZ, Resazurin: +BPS: 0.06 µg/mL
  MICRZ, Resazurin: 0.06 µg/mL
S. aureus [2]; [6]
  MICRZ, Resazurin: +BPS: 0.12 µg/mL
  MICRZ, Resazurin: 0.06 µg/mL
[3]
  iclaprim concentrations at which action potential duration was increased: above 1 μM
S. aureus [4]
  MIC90 of S. aureus: 0.12 µg/mL
E. faecalis; E. faecalis ATCC 29212
  MICRZ, Resazurin: +BPS: <=0.015 μg/mL
  MICRZ, Resazurin: <=0.015 μg/mL
E. faecalis; E. faecalis ATCC 33186
  MICRZ, Resazurin: +BPS: <=0.015 μg/mL
  MICRZ, Resazurin: 0.03 µg/mL
S. aureus strain AH1252; [7]
  72 hour lungs (CFU/gram of lung) log10CFU/Lung: 3.34 log10CFU/Lung
  Change in CFUs from 2 hr.: 0.22 log 10 CFU
S. aureus strain AH1252; SC/BID 3 days, vancomycin 50 mg/kg, 9 rats
  Survival >60 hrs: 9/9
S. aureus strain AH1252; vancomycin 50 mg/kg SC/BID
  survival compared to the infection controls: increased survival
S. aureus strain AH1252; vs 72 hr infection controls, vancomycin 50 mg/kg SC/BID
  Change in CFUs from 72 hr.: −5.34 log 10 CFU
[5]
  effect of BPS on the MIC and MICRZ values: minimal or no effect
E. coli; 2.5% v/v BPS
  MICRZ, Resazurin: +BPS: 1 µg/mL
E. coli; no BPS
  MICRZ, Resazurin: 1 µg/mL
S. pneumoniae; ATCC49619, S. pneumoniae ATCC 49619, 2.5% v/v BPS, read-out: MIC, CLSI: +BPS
  MIC: 0.06 µg/mL (≈ 0.169 µM)
S. pneumoniae; ATCC49619, S. pneumoniae ATCC 49619, no BPS, read-out: MIC, CLSI
  MIC: 0.06 µg/mL (≈ 0.169 µM)
S. pneumoniae; S. pneumoniae Clinical Isolate 818757, 2.5% v/v BPS, read-out: MIC, CLSI: +BPS
  MIC: 0.06 µg/mL (≈ 0.169 µM)
S. pneumoniae; S. pneumoniae Clinical Isolate 818757, no BPS, read-out: MIC, CLSI
  MIC: 0.06 µg/mL (≈ 0.169 µM)
S. pneumoniae; S. pneumoniae Clinical Isolate 825175, 2.5% v/v BPS, read-out: MIC, CLSI: +BPS
  MIC: 0.12 µg/mL (≈ 0.339 µM)
S. pneumoniae; S. pneumoniae Clinical Isolate 825175, no BPS, read-out: MIC, CLSI
  MIC: 0.12 µg/mL (≈ 0.339 µM)
K. pneumoniae; K. pneumoniae ATCC 700603, 2.5% v/v BPS
  MICRZ, Resazurin: +BPS: 4 µg/mL
K. pneumoniae; K. pneumoniae ATCC 700603, no BPS
  MICRZ, Resazurin: 4 µg/mL
K. pneumoniae; K. pneumoniae Clinical Isolate 858055, 2.5% v/v BPS
  MICRZ, Resazurin: +BPS: 2 µg/mL
K. pneumoniae; K. pneumoniae Clinical Isolate 858055, no BPS
  MICRZ, Resazurin: 2 µg/mL
K. pneumoniae; ATCC700603, K. pneumoniae ATCC 700603, 2.5% v/v BPS, read-out: MIC, CLSI: +BPS
  MIC: 4 µg/mL (≈ 11.3 µM)
K. pneumoniae; ATCC700603, K. pneumoniae ATCC 700603, no BPS, read-out: MIC, CLSI
  MIC: 4 µg/mL (≈ 11.3 µM)
K. pneumoniae; K. pneumoniae Clinical Isolate 858055, 2.5% v/v BPS, read-out: MIC, CLSI: +BPS
  MIC: 2 µg/mL (≈ 5.64 µM)
K. pneumoniae; K. pneumoniae Clinical Isolate 858055, no BPS, read-out: MIC, CLSI
  MIC: 2 µg/mL (≈ 5.64 µM)
H. influenzae; H. influenzae ATCC 49247, 2.5% v/v BPS
  MICRZ, Resazurin: +BPS: 0.25 µg/mL
H. influenzae; H. influenzae ATCC 49247, no BPS
  MICRZ, Resazurin: 0.25 µg/mL
H. influenzae; H. influenzae Clinical Isolate 824704, 2.5% v/v BPS
  MICRZ, Resazurin: +BPS: 0.06 µg/mL
H. influenzae; H. influenzae Clinical Isolate 824704, no BPS
  MICRZ, Resazurin: 0.06 µg/mL
H. influenzae; ATCC49247, H. influenzae ATCC 49247, 2.5% v/v BPS, read-out: MIC, CLSI: +BPS
  MIC: 0.12 µg/mL (≈ 0.339 µM)
H. influenzae; ATCC49247, H. influenzae ATCC 49247, no BPS, read-out: MIC, CLSI
  MIC: 0.12 µg/mL (≈ 0.339 µM)
H. influenzae; H. influenzae Clinical Isolate 824704, 2.5% v/v BPS, read-out: MIC, CLSI: +BPS
  MIC: 0.06 µg/mL (≈ 0.169 µM)
H. influenzae; H. influenzae Clinical Isolate 824704, no BPS, read-out: MIC, CLSI
  MIC: 0.06 µg/mL (≈ 0.169 µM)
